# What was measured:
# Experiment in all cases: KINOMEscan competition binding
# Conditions in all cases: compound 10.0 µM
# [1] = test system: ABL1 (human), P00519 [F317I]
# [2] = test system: ABL1 (human), P00519 [Y253F]
# [3] = target: BLK (human) (UniProt P51451)
# [4] = target: CDC2L2 (human) (UniProt Q9UQ88)
# [5] = target: CDK14 (human) (UniProt O94921)
# [6] = target: CDK16 (human) (UniProt Q00536)
# [7] = target: CDK5 (human) (UniProt Q00535)
# [8] = target: CDK9 (human) (UniProt P50750)
# [9] = target: CHUK (human) (UniProt O15111)
# [10] = target: CaMK1 (human) (UniProt Q14012)
# [11] = target: DDR1 (human) (UniProt Q08345)
# [12] = target: DDR2 (human) (UniProt Q16832)
# [13] = test system: EGFR (human), P00533 [747-751 del / S ins]
# [14] = target: EPHA2 (human) (UniProt P29317)
# [15] = target: ERBB4 (human) (UniProt Q15303)
# [16] = target: FGFR1 (human) (UniProt P11362)
# [17] = test system: FLT3 (human), P36888 [N841I]
# [18] = target: FLT4 (human) (UniProt P35916)
# [19] = target: JAK2 JH1 catalytic (human) (UniProt O60674)
# [20] = target: JAK3 JH1 catalytic (human) (UniProt P52333)
# [21] = target: KDR (human) (UniProt P35968)
# [22] = test system: KIT (human), P10721 [V559D/V654A]
# [23] = target: LTK (human) (UniProt P29376)
# [24] = target: MAP4K1 (human) (UniProt Q92918)
# [25] = target: MAP4K2 (human) (UniProt Q12851)
# [26] = target: MAPK13 (human) (UniProt O15264)
# [27] = target: MAPK14 (human) (UniProt Q16539)
# [28] = target: MAPK9 (human) (UniProt P45984)
# [29] = target: MYLK2 (human) (UniProt Q9H1R3)
# [30] = target: MYO3A (human) (UniProt Q8NEV4)
# [31] = target: MYO3B (human) (UniProt Q8WXR4)
# [32] = test system: RET (human), P07949 [V804L]
# [33] = target: RIPK1 (human) (UniProt Q13546)
# [34] = target: SIK1 (human) (UniProt P57059)
# [35] = target: SRC (human) (UniProt P12931)
# [36] = target: STK38L (human) (UniProt Q9Y2H1)
# [37] = target: SYK (human) (UniProt P43405)
# [38] = target: TAOK1 (human) (UniProt Q7L7X3)
# [39] = target: TIE1 (human) (UniProt P35590)
# [40] = target: TNIK (human) (UniProt Q9UKE5)
# [41] = target: TXK (human) (UniProt P42681)
# RIPK1 (human), sequence (Q13546 whole entry, looked up): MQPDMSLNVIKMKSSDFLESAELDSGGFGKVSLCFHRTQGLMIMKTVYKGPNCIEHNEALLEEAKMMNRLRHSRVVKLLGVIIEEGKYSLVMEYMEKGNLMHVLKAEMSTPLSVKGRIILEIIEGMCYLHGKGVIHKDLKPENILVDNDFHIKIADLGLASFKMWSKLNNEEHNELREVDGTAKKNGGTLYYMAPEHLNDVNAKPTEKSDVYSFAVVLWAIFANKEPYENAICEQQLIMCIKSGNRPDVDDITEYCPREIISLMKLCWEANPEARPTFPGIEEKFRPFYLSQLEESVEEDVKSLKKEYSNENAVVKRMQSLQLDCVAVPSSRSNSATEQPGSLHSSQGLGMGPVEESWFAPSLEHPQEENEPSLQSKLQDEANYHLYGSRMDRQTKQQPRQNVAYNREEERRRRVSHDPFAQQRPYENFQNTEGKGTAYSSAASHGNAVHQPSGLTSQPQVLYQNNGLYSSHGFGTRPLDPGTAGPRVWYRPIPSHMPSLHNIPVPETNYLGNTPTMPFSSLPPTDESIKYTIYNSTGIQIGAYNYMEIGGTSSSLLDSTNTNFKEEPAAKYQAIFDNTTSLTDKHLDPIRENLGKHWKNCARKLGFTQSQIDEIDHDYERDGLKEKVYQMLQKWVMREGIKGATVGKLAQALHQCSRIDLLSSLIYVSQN
# STK38L (human), sequence (Q9Y2H1 whole entry, looked up): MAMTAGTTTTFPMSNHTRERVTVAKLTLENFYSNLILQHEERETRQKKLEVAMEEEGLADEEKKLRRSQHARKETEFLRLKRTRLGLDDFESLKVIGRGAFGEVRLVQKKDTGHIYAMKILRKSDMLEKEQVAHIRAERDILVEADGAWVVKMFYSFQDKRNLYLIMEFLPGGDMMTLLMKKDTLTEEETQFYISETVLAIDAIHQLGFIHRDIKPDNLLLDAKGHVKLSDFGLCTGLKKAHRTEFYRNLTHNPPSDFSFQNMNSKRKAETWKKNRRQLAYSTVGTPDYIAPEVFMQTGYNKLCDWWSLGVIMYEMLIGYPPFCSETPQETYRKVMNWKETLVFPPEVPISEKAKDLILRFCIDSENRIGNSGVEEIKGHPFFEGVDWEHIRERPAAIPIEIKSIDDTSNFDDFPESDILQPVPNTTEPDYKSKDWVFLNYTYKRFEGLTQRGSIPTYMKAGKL
# CaMK1 (human), sequence (Q14012 whole entry, looked up): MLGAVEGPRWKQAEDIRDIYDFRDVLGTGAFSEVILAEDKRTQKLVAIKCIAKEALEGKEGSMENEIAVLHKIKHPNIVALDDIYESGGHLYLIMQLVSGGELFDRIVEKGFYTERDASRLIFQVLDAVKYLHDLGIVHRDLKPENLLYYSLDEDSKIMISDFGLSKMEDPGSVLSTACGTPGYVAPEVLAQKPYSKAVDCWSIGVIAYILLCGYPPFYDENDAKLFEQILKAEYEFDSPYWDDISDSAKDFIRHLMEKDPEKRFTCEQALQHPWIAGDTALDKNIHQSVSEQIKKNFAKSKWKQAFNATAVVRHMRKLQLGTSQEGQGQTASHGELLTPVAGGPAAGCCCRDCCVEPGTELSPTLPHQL
# MYLK2 (human), sequence (Q9H1R3 whole entry, looked up): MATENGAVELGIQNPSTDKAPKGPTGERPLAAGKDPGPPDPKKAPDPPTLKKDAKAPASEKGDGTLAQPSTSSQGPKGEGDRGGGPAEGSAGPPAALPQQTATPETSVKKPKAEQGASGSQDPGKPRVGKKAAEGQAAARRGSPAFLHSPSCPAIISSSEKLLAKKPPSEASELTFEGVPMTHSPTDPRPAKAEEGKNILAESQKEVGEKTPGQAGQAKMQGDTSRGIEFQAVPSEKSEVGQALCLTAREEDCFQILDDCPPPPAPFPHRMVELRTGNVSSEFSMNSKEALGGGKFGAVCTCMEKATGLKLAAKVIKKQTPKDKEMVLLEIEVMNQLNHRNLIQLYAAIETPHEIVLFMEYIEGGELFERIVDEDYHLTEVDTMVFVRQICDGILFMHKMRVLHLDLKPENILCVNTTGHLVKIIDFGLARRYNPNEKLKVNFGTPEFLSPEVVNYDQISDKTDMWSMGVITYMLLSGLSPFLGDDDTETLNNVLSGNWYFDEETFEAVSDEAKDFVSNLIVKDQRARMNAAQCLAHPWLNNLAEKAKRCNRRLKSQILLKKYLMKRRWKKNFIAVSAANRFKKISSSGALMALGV
# DDR2 (human), sequence (Q16832 whole entry, looked up): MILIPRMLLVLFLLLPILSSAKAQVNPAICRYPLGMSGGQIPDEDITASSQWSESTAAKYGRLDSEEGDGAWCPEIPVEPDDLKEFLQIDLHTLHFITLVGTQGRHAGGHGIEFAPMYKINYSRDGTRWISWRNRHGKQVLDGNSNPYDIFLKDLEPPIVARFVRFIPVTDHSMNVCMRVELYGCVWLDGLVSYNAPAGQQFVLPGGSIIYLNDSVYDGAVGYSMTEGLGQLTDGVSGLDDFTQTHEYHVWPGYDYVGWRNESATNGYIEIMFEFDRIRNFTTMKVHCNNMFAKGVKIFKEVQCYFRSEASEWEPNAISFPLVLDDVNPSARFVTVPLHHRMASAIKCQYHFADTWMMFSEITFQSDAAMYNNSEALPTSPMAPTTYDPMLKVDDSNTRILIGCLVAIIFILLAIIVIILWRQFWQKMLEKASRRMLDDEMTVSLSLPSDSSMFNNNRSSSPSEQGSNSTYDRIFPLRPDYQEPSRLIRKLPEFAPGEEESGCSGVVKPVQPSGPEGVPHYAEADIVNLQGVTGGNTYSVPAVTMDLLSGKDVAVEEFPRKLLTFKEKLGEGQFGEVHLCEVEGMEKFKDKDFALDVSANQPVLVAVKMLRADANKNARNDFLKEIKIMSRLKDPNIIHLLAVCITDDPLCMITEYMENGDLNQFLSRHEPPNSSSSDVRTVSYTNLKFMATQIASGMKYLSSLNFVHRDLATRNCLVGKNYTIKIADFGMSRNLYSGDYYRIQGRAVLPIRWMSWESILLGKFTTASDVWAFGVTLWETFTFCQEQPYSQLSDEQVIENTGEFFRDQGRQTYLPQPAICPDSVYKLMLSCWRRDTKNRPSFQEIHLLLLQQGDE
# MAP4K1 (human), sequence (Q92918 whole entry, looked up): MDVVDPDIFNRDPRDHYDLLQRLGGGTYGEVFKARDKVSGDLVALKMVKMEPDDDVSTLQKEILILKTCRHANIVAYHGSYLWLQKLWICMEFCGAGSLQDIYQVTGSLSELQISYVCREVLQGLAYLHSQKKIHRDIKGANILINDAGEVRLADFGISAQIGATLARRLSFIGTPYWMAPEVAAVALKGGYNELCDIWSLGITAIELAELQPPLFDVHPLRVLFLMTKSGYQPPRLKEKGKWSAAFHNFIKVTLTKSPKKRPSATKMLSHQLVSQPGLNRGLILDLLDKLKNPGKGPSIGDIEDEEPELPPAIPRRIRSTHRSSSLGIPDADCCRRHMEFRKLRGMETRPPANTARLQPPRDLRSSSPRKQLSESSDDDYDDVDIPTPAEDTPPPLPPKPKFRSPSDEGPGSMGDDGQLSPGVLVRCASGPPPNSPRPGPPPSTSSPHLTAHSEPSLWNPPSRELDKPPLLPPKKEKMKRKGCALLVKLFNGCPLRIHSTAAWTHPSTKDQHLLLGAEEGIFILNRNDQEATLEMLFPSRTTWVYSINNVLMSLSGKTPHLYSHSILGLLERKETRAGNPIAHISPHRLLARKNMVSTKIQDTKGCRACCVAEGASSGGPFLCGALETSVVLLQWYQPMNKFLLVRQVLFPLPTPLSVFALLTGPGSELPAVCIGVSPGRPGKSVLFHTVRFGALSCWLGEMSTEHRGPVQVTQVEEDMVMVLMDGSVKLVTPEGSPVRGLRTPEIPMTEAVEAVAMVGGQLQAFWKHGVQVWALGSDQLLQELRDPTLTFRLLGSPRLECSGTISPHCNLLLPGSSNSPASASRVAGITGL
# EGFR (human), P00533 [747-751 del / S ins], sequence (P00533 whole entry, looked up, stated change not applied): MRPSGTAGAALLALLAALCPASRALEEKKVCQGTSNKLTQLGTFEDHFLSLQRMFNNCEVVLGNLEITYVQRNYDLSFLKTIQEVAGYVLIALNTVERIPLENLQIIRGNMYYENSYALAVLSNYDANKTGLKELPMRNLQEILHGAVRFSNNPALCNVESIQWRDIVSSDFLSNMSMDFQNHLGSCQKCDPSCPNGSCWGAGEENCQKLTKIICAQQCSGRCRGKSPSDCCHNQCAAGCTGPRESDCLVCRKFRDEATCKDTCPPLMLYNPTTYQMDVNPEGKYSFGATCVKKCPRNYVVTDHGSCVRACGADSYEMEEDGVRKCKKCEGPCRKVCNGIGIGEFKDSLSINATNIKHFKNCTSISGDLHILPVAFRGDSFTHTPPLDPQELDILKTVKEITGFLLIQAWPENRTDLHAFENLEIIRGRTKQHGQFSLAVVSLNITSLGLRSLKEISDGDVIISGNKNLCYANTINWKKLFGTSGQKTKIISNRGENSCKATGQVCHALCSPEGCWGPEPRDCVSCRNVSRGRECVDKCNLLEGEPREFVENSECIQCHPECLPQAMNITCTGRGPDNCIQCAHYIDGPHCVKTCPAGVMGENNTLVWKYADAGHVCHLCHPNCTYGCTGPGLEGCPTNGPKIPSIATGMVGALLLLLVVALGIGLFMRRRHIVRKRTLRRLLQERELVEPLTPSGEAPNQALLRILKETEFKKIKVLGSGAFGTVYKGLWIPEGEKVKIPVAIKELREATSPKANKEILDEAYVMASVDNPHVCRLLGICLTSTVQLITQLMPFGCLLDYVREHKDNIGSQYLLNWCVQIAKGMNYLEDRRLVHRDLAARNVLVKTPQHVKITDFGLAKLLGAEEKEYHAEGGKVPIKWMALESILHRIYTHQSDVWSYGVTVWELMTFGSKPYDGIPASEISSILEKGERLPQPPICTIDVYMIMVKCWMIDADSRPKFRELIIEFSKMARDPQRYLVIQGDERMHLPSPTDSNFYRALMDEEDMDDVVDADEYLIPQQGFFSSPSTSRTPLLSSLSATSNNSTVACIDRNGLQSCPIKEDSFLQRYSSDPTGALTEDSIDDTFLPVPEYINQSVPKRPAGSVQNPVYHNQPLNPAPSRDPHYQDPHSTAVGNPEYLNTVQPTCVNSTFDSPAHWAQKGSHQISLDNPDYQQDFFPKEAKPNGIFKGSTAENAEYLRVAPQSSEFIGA
structure (smiles),measurement,setting,value
CCN1CCN(Cc2ccc(NC(=O)c3ccc(C)c(Oc4ccnc5[nH]ccc45)c3)cc2C(F)(F)F)CC1,"kinase still bound, per cent of control",[1],0.05%
same,"kinase still bound, per cent of control",[2],1.1%
same,"kinase still bound, per cent of control",[3],0.45%
same,residual activity,[4],0.05%
same,residual activity,[5],0.4%
same,residual activity,[6],11%
same,residual activity,[7],19%
same,residual activity,[8],5.8%
same,"kinase still bound, per cent of control",[9],0.95%
same,"kinase still bound, per cent of control",[10],0%
same,"kinase still bound, per cent of control",[11],0.05%
same,"kinase still bound, per cent of control",[12],5.1%
same,"kinase still bound, per cent of control",[13],1.1%
same,"kinase still bound, per cent of control",[14],3.1%
same,"kinase still bound, per cent of control",[15],28%
same,"kinase still bound, per cent of control",[16],1.7%
same,"kinase still bound, per cent of control",[17],0%
same,"kinase still bound, per cent of control",[18],0.2%
same,"kinase still bound, per cent of control",[19],11%
same,"kinase still bound, per cent of control",[20],2.4%
same,"kinase still bound, per cent of control",[21],1.5%
same,"kinase still bound, per cent of control",[22],2.7%
same,"kinase still bound, per cent of control",[23],1.2%
same,"kinase still bound, per cent of control",[24],1.6%
same,"kinase still bound, per cent of control",[25],0.3%
same,"kinase still bound, per cent of control",[26],0.55%
same,"kinase still bound, per cent of control",[27],0%
same,"kinase still bound, per cent of control",[28],0%
same,"kinase still bound, per cent of control",[29],8.4%
same,"kinase still bound, per cent of control",[30],6.4%
same,"kinase still bound, per cent of control",[31],4.8%
same,"kinase still bound, per cent of control",[32],0.8%
same,"kinase still bound, per cent of control",[33],0%
same,"kinase still bound, per cent of control",[34],5.3%
same,"kinase still bound, per cent of control",[35],0.2%
same,"kinase still bound, per cent of control",[36],6.8%
same,"kinase still bound, per cent of control",[37],6.2%
same,"kinase still bound, per cent of control",[38],3%
same,"kinase still bound, per cent of control",[39],0.95%
same,"kinase still bound, per cent of control",[40],8.2%
same,"kinase still bound, per cent of control",[41],12%
